Data: US8846704B2, “Thiopyrimidine-based compounds and uses thereof” (YM Biosciences Austraila Pty Ltd, priority 2007, dated 2014)

Each compound was assayed against T1, human JAK3 (Homo sapiens, UniProt P52333) (assay: Alphascreen tyrosine kinase enzyme assay, JAK3 kinase domain). Conditions: read-out: JAK3 IC50_nM.
T1 construct: The kinase domain of human JAK3 was amplified; GST (N); made in house; host or cells: Sf9 insect cells (baculovirus)
T1 sequence (P52333 822-1111 limits assumed): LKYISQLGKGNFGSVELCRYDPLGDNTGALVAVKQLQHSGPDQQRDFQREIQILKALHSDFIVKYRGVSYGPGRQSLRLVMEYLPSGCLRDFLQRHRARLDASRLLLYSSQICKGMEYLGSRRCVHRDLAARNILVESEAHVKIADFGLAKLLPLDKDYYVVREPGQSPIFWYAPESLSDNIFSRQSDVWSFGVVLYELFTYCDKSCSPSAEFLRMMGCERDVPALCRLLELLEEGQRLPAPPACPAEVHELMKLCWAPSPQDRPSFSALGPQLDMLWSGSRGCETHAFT
Assay type: biochemical
Method in brief: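 GST-affinity-purified human JAK3 kinase domain (baculovirus/Sf9) was pre-incubated 20 min with compound ([…]) in HEPES pH 7.5 buffer with MgCl2, vanadate and Tween 20. Biotinylated peptide substrate ([…]) and ATP were then added; phosphotyrosine was detected by AlphaScreen PY100 acceptor and streptavidin donor beads after 2–3 h.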
With `C=CC(=O)Nc1cccc(Nc2nccc(SC)n2)c1` [Compound 7, N-(3-(4-(methylthio)pyrimidin-2-ylao)phenyl)acrylamide] the IC50 was less than 100 nM. `Cc1cnc(Nc2ccc(O)cc2)nc1Sc1ccc(N)cc1` [Compound 191, 4-(4-(4-aophenylthio)-5-methylpyrimidin-2-ylao)phenol] gave an IC50 of less than 500 nM. Work on `N#Cc1ncn(Cc2ccc(Sc3ccnc(Nc4ccc(N5CCOCC5)cc4)n3)cc2)c1N` [Compound 202, 5-ao-1-(4-(2-(4-morpholinophenylao)pyrimidin-4-ylthio)benzyl)-1H-imidazole-4-carbonitrile] yielded an IC50 of less than 500 nM. With `Cc1cnc(Nc2ccc(N3CCOCC3)cc2)nc1Sc1ccc(NC(=O)CO)cc1` [Compound 229, 2-hydroxy-N-(4-(5-methyl-2-(4-morpholinophenylao)pyrimidin-4-ylthio)phenyl)acetamide] the IC50 was less than 500 nM. `Cc1cnc(Nc2ccc(N3CCOCC3)cc2)nc1Sc1ccc(C=O)cc1` [Compound 219, 4-(5-methyl-2-(4-morpholinophenylao)pyrimidin-4-ylthio)benzaldehyde] was tested, and the IC50 was less than 500 nM. `N#Cc1c(N)ncn1Cc1ccc(Sc2ccnc(Nc3ccc(N4CCOCC4)cc3)n2)cc1` [Compound 203, 4-ao-1-(4-(2-(4-morpholinophenylao)pyrimidin-4-ylthio)benzyl)-1H-imidazole-5-carbonitrile] showed an IC50 of less than 500 nM. In the case of `Cc1cnc(Nc2ccc(N3CCOCC3)cc2)nc1Sc1ccc(C(C#N)N2CCOCC2)cc1` (stereo not shown) [Compound 223, 2-(4-(5-methyl-2-(4-morpholinophenylao)pyrimidin-4-ylthio)phenyl)-2-morpholinoacetonitrile], the IC50 is reported as less than 500 nM. Compound `NC(=O)c1ccc(Sc2ccnc(Nc3ccc(N4CCOCC4)cc3)n2)cc1` [Compound 207, 4-(2-(4-morpholinophenylao)pyrimidin-4-ylthio)benzamide] has an IC50 of less than 500 nM. For `Cc1cnc(Nc2ccc(N3CCOCC3)cc2)nc1Sc1ccc(N2C(=O)COCC2=O)cc1` [Compound 190, 4-(4-(5-methyl-2-(4-morpholinophenylao)pyrimidin-4-ylthio)phenyl)morpholine-3,5-dione], the IC50 was less than 100 nM. Compound `Cc1cnc(Nc2ccc(N3CCOCC3)cc2)nc1Sc1ccc(CC#N)cc1` [Compound 222, 2-(4-(5-methyl-2-(4-morpholinophenylao)pyrimidin-4-ylthio)phenyl)acetonitrile] has an IC50 of less than 500 nM. `c1cc(Sc2ccc(Cn3cncn3)cc2)nc(Nc2ccc(N3CCOCC3)cc2)n1` [Compound 204, 4-(4-((1H-1,2,4-triazol-1-yl)methyl)phenylthio)-N-(4-morpholinophenyl)pyrimidin-2-ae] was tested, and the IC50 was less than 500 nM. Work on `N#Cc1c(N)ncn1Cc1cccc(Sc2ccnc(Nc3ccc(N4CCOCC4)cc3)n2)c1` [Compound 199, 4-ao-1-(3-(2-(4-morpholinophenylao)pyrimidin-4-ylthio)benzyl)-1H-imiazole-5-carbonitrile] yielded an IC50 of less than 500 nM. In the case of `CON(C)C(=O)c1ccc(Sc2nc(Nc3ccc(N4CCOCC4)cc3)ncc2C)cc1` [Compound 218, N-methoxy-N-methyl-4-(5-methyl-2-(4-morpholinophenylao)pyrimidin-4-ylthio)benzamide], the IC50 is reported as less than 500 nM. `Cc1cnc(Nc2ccc(N3CCOCC3)cc2)nc1Sc1ccc(CO)cc1` [Compound 220, (4-(5-methyl-2-(4-morpholinophenylao)pyrimidin-4-ylthio)phenyl)methanol] gave an IC50 of less than 100 nM. For `Cc1cnc(Nc2ccc(N3CCOCC3)cc2)nc1Sc1ccc(C(=O)N2CCCC2)cc1` [Compound 224, (4-(5-methyl-2-(4-morpholinophenylao)pyrimidin-4-ylthio)phenyl)(pyrrolidin-1-yl)methanone], the IC50 was less than 500 nM. Compound `N#CCc1ccc(Sc2ccnc(Nc3ccc(N4CCOCC4)cc3)n2)cc1` [Compound 210, 2-(4-(2-(4-morpholinophenylao)pyrimidin-4-ylthio)phenyl)acetonitrile] has an IC50 of less than 500 nM. `Cc1cnc(Nc2cccc(NS(C)(=O)=O)c2)nc1Sc1ccc(CO)cc1` [Compound 226, N-(3-(4-(4-(hydroxymethyl)phenylthio)-5-methylpyrimidin-2-ylao)phenyl)methanesulfonamide] showed an IC50 of less than 500 nM. `Cc1cnc(Nc2ccc(N3CCOCC3)cc2)nc1Sc1cccc(CO)c1` [Compound 212, (3-(5-methyl-2-(4-morpholinophenylao)pyrimidin-4-ylthio)phenyl)methanol] was tested, and the IC50 was less than 500 nM. With `Cc1cnc(Nc2cccc(S)c2)nc1Sc1ccc(NC(=O)CCl)cc1` [Compound 195, 2-chloro-N-(4-(2-(3-mercaptophenylao)-5-methylpyrimidin-4-ylthio)phenyl)acetamide] the IC50 was less than 100 nM. Compound `Cc1cnc(Nc2ccc(N3CCOCC3)cc2)nc1Sc1ccc(NC2CCOC2=O)cc1` (stereo not shown) [Compound 228, 3-(4-(5-methyl-2-(4-morpholinophenylao)pyrimidin-4-ylthio)phenylao)dihydrofuran-2(3H)-one] has an IC50 of less than 100 nM. Work on `Cc1cnc(Nc2ccc(N3CCOCC3)cc2)nc1Sc1ccc(C(C#N)N2CCN(C)CC2)cc1` (stereo not shown) [Compound 225, 2-(4-(5-methyl-2-(4-morpholinophenylao)pyrimidin-4-ylthio)phenyl)-2-(4-methylpiperazin-1-yl)acetonitrile] yielded an IC50 of less than 500 nM. In the case of `Cc1cnc(Nc2ccc(N3CCOCC3)cc2)nc1Sc1ccc(N2CCSCC2=O)cc1` [Compound 197, 4-(4-(5-methyl-2-(4-morpholinophenylao)pyrimidin-4-ylthio)phenyl)thiomorpholin-3-one], the IC50 is reported as less than 100 nM.
